Experimental data: PMC8472786, “Inhibitory Effects of Artificial Sweeteners on Bacterial Quorum Sensing” (International Journal of Molecular Sciences, 2021)
Where a SMILES comes first, the peptide text is derived from it.

Target: T1, LasR (Pseudomonas aeruginosa, UniProt P25084)
T1 construct: full-length LasR
Test: microscale thermophoresis with fluorescently labeled purified LasR
Type: binding

T1 sequence (P25084 whole entry): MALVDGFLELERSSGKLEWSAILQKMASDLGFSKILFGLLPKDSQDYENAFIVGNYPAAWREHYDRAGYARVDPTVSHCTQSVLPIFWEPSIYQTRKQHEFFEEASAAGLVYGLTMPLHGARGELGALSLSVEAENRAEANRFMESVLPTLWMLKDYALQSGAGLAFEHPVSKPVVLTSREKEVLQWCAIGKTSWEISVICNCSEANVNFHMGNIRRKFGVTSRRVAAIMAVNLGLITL

Compound | Kd
COC(=O)[C@H](Cc1ccccc1)NC(=O)[C@@H](N)CC(=O)O [aspartame] (H-Asp-Phe-OMe) | 11.8 µM
O=C1NS(=O)(=O)c2ccccc21 [saccharin] | 12.9 µM
OC[C@H]1O[C@H](O[C@]2(CCl)O[C@H](CCl)[C@@H](O)[C@@H]2O)[C@H](O)[C@@H](O)[C@H]1Cl [sucralose] | 12.8 µM
